# According to patent US7612064B2, “Sulfopyrroles” (Takeda Pharmaceutical Company Limited, priority 2003, dated 2009):
# What was measured:
# [1] = tested on: HeLa; assay: MTS proliferation assay; type: cell-based, human; settings: 72 h
# Outline: (§1)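 Compounds at final 10/3/1/0.3 μM (added in complete medium, ≤5% DMSO); 72 h, culture conditions; + MTS, 3 h; A492.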
# [2] = tested on: Jurkat; assay: MTS proliferation assay; type: cell-based, human; settings: 72 h
# Outline: as §1
# [3] = tested on: MRC5; assay: MTS proliferation assay; type: cell-based; settings: MRC5, 72 h
# Outline: as §1
# [4] = Hoechst 33342 nuclear staining; type: cell-based; settings: for Hoechst 33342 nuclear staining score, H460: H460 cells; for Hoechst 33342 nuclear staining score, HeLa: HeLa cells; for Hoechst 33342 nuclear staining score, Jily: Jily cells; for Hoechst 33342 nuclear staining score, Jurkat: Jurkat cells; for Hoechst 33342 nuclear staining score, MRC5: MRC5 cells; on Hoechst 33342 nuclear staining score, PBLs: key: 0: no activity; 1: weak activity comprising less than 50% of the cells; 2: strong activity comprising more than 50% of the cells;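 on all read-outs here: apoptotic nuclei scored 0 none 1 weak under 50% of cells 2 strong over 50% of cells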
# Outline: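 Cells were plated in 96 well tissue culture plates in 80 μl complete medium, with 3-5*10^3 cells per well for adherent lines and 8-10*10^3 for suspension lines. Adherent cells spread for 24 h before treatment, while suspension cells were treated right after seeding. Compounds were added in 20 μl complete medium containing max 5% DMSO.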
# [5] = conc 0.3 (final concentrations in μM), 24 h or 48 h incubation
# [6] = conc 1 (final concentrations in μM), 24 h or 48 h incubation
# [7] = conc 3 (final concentrations in μM), 24 h or 48 h incubation
# [8] = conc 10 (final concentrations in μM), 24 h or 48 h incubation
# [9] = conc 0.1 (final concentrations in μM), 24 h or 48 h incubation
structure (smiles),measurement,setting,value
COc1cc(-c2cc(-c3cccnc3)cn2S(=O)(=O)c2ccc(OC(F)(F)F)cc2)cc(OC)c1OC [Example 77],IC50,[1],> 1 µM
same,IC50,[2],> 1 µM
same,IC50,[3],> 1 µM
same,"Hoechst 33342 nuclear staining score, H460",[4]; conc 0.1,0
same,"Hoechst 33342 nuclear staining score, H460",[4]; conc 0.3,0
same,"Hoechst 33342 nuclear staining score, H460",[4]; conc 1,0
same,"Hoechst 33342 nuclear staining score, H460",[4]; conc 3,1 (weak activity comprising less than 50% of the cells)
same,"Hoechst 33342 nuclear staining score, HeLa",[4]; conc 0.1,0
same,"Hoechst 33342 nuclear staining score, HeLa",[4]; conc 0.3,0
same,"Hoechst 33342 nuclear staining score, HeLa",[4]; conc 1,0
same,"Hoechst 33342 nuclear staining score, HeLa",[4]; conc 3,0
same,"Hoechst 33342 nuclear staining score, Jily",[4]; conc 0.1,0
same,"Hoechst 33342 nuclear staining score, Jily",[4]; conc 0.3,0
same,"Hoechst 33342 nuclear staining score, Jily",[4]; conc 1,0
same,"Hoechst 33342 nuclear staining score, Jily",[4]; conc 3,1 (weak activity comprising less than 50% of the cells)
same,"Hoechst 33342 nuclear staining score, Jurkat",[4]; conc 0.1,0
same,"Hoechst 33342 nuclear staining score, Jurkat",[4]; conc 0.3,0
same,"Hoechst 33342 nuclear staining score, Jurkat",[4]; conc 1,0
same,"Hoechst 33342 nuclear staining score, Jurkat",[4]; conc 3,2 (strong activity comprising more than 50% of the cells)
same,"Hoechst 33342 nuclear staining score, MRC5",[4]; conc 0.1,0
same,"Hoechst 33342 nuclear staining score, MRC5",[4]; conc 0.3,0
same,"Hoechst 33342 nuclear staining score, MRC5",[4]; conc 1,0
same,"Hoechst 33342 nuclear staining score, MRC5",[4]; conc 3,0
same,"Hoechst 33342 nuclear staining score, PBLs",[4]; conc 0.1,0
same,"Hoechst 33342 nuclear staining score, PBLs",[4]; conc 0.3,0
same,"Hoechst 33342 nuclear staining score, PBLs",[4]; conc 1,0
same,"Hoechst 33342 nuclear staining score, PBLs",[4]; conc 3,0
Cc1ccc(S(=O)(=O)n2cc(-c3cncnc3)cc2-c2ccc3c(c2)OCO3)cc1 [Example 46],IC50,[1],> 1 µM
same,IC50,[2],> 1 µM
same,IC50,[3],> 1 µM
same,"Hoechst 33342 nuclear staining score, HeLa",[4]; [5],0
same,"Hoechst 33342 nuclear staining score, HeLa",[4]; [6],0
same,"Hoechst 33342 nuclear staining score, HeLa",[4]; [7],0
same,"Hoechst 33342 nuclear staining score, HeLa",[4]; [8],0
same,"Hoechst 33342 nuclear staining score, Jurkat",[4]; [5],0
same,"Hoechst 33342 nuclear staining score, Jurkat",[4]; [6],0
same,"Hoechst 33342 nuclear staining score, Jurkat",[4]; [7],0
same,"Hoechst 33342 nuclear staining score, Jurkat",[4]; [8],0
CCN1CCN(CCNCc2cc(-c3ccc4c(c3)OCO4)n(S(=O)(=O)c3ccc(C)cc3)c2)CC1 [Example 15],IC50,[1],> 1 µM
same,IC50,[2],> 1 µM
same,IC50,[3],> 1 µM
same,"Hoechst 33342 nuclear staining score, HeLa",[4]; [9],0
same,"Hoechst 33342 nuclear staining score, HeLa",[4]; [5],0
same,"Hoechst 33342 nuclear staining score, HeLa",[4]; [6],0
same,"Hoechst 33342 nuclear staining score, HeLa",[4]; [7],0
same,"Hoechst 33342 nuclear staining score, Jurkat",[4]; [9],0
same,"Hoechst 33342 nuclear staining score, Jurkat",[4]; [5],0
same,"Hoechst 33342 nuclear staining score, Jurkat",[4]; [6],0
same,"Hoechst 33342 nuclear staining score, Jurkat",[4]; [7],0
COc1cc(-c2cc(CNc3ccc(N4CCOCC4)cc3)cn2S(=O)(=O)c2ccc(C)cc2)cc(OC)c1OC [Example 71],IC50,[1],< 1 µM
same,IC50,[2],< 1 µM
same,IC50,[3],< 1 µM
same,"Hoechst 33342 nuclear staining score, H460",[4]; conc 0.1,0
same,"Hoechst 33342 nuclear staining score, H460",[4]; conc 0.3,0
same,"Hoechst 33342 nuclear staining score, H460",[4]; conc 1,2 (strong activity comprising more than 50% of the cells)
same,"Hoechst 33342 nuclear staining score, H460",[4]; conc 3,2 (strong activity comprising more than 50% of the cells)
same,"Hoechst 33342 nuclear staining score, HeLa",[4]; conc 0.1,0
same,"Hoechst 33342 nuclear staining score, HeLa",[4]; conc 0.3,0
same,"Hoechst 33342 nuclear staining score, HeLa",[4]; conc 1,2 (strong activity comprising more than 50% of the cells)
same,"Hoechst 33342 nuclear staining score, HeLa",[4]; conc 3,2 (strong activity comprising more than 50% of the cells)
same,"Hoechst 33342 nuclear staining score, Jily",[4]; conc 0.1,0
same,"Hoechst 33342 nuclear staining score, Jily",[4]; conc 0.3,0
same,"Hoechst 33342 nuclear staining score, Jily",[4]; conc 1,2 (strong activity comprising more than 50% of the cells)
same,"Hoechst 33342 nuclear staining score, Jily",[4]; conc 3,2 (strong activity comprising more than 50% of the cells)
same,"Hoechst 33342 nuclear staining score, Jurkat",[4]; conc 0.1,0
same,"Hoechst 33342 nuclear staining score, Jurkat",[4]; conc 0.3,2 (strong activity comprising more than 50% of the cells)
same,"Hoechst 33342 nuclear staining score, Jurkat",[4]; conc 1,2 (strong activity comprising more than 50% of the cells)
same,"Hoechst 33342 nuclear staining score, Jurkat",[4]; conc 3,2 (strong activity comprising more than 50% of the cells)
same,"Hoechst 33342 nuclear staining score, MRC5",[4]; conc 0.1,0
same,"Hoechst 33342 nuclear staining score, MRC5",[4]; conc 0.3,0
same,"Hoechst 33342 nuclear staining score, MRC5",[4]; conc 1,2 (strong activity comprising more than 50% of the cells)
same,"Hoechst 33342 nuclear staining score, MRC5",[4]; conc 3,2 (strong activity comprising more than 50% of the cells)
same,"Hoechst 33342 nuclear staining score, PBLs",[4]; conc 0.1,0
same,"Hoechst 33342 nuclear staining score, PBLs",[4]; conc 0.3,0
same,"Hoechst 33342 nuclear staining score, PBLs",[4]; conc 1,0
same,"Hoechst 33342 nuclear staining score, PBLs",[4]; conc 3,0
Cc1ccc(S(=O)(=O)n2cc(-c3cncc(C(N)=O)c3)cc2-c2ccc3c(c2)OCO3)cc1 [Example 50],IC50,[1],> 1 µM
same,IC50,[2],< 1 µM
same,IC50,[3],> 1 µM
same,"Hoechst 33342 nuclear staining score, HeLa",[4]; [9],0
same,"Hoechst 33342 nuclear staining score, HeLa",[4]; [5],0
same,"Hoechst 33342 nuclear staining score, HeLa",[4]; [6],0
same,"Hoechst 33342 nuclear staining score, HeLa",[4]; [7],2 (strong activity comprising more than 50% of the cells)
same,"Hoechst 33342 nuclear staining score, Jurkat",[4]; [9],0
same,"Hoechst 33342 nuclear staining score, Jurkat",[4]; [5],0
same,"Hoechst 33342 nuclear staining score, Jurkat",[4]; [6],0
same,"Hoechst 33342 nuclear staining score, Jurkat",[4]; [7],2 (strong activity comprising more than 50% of the cells)
Cc1ccc(S(=O)(=O)n2cc(CNCCCN3CCN(C)CC3)cc2-c2ccc3c(c2)OCO3)cc1 [Example 12],IC50,[1],> 1 µM
same,IC50,[2],> 1 µM
same,IC50,[3],> 1 µM
same,"Hoechst 33342 nuclear staining score, HeLa",[4]; [9],0
same,"Hoechst 33342 nuclear staining score, HeLa",[4]; [5],0
same,"Hoechst 33342 nuclear staining score, HeLa",[4]; [6],0
same,"Hoechst 33342 nuclear staining score, HeLa",[4]; [7],0
same,"Hoechst 33342 nuclear staining score, Jurkat",[4]; [9],0
same,"Hoechst 33342 nuclear staining score, Jurkat",[4]; [5],0
same,"Hoechst 33342 nuclear staining score, Jurkat",[4]; [6],0
same,"Hoechst 33342 nuclear staining score, Jurkat",[4]; [7],0
Cc1ccc(S(=O)(=O)n2cc(CNCCN3CCN(Cc4ccccc4)CC3)cc2-c2ccc3c(c2)OCO3)cc1 [Example 16],IC50,[1],> 1 µM
same,IC50,[2],> 1 µM
same,IC50,[3],> 1 µM
same,"Hoechst 33342 nuclear staining score, HeLa",[4]; [9],0
same,"Hoechst 33342 nuclear staining score, HeLa",[4]; [5],0
same,"Hoechst 33342 nuclear staining score, HeLa",[4]; [6],0
same,"Hoechst 33342 nuclear staining score, HeLa",[4]; [7],1 (weak activity comprising less than 50% of the cells)
same,"Hoechst 33342 nuclear staining score, Jurkat",[4]; [9],0
same,"Hoechst 33342 nuclear staining score, Jurkat",[4]; [5],0
same,"Hoechst 33342 nuclear staining score, Jurkat",[4]; [6],0
same,"Hoechst 33342 nuclear staining score, Jurkat",[4]; [7],0
Cc1ccc(S(=O)(=O)n2cc(-c3ccc(C(N)=O)cc3)cc2-c2cccs2)cc1 [Example 52],IC50,[1],> 1 µM
same,IC50,[2],> 1 µM
same,IC50,[3],> 1 µM
same,"Hoechst 33342 nuclear staining score, HeLa",[4]; [9],0
same,"Hoechst 33342 nuclear staining score, HeLa",[4]; [5],0
same,"Hoechst 33342 nuclear staining score, HeLa",[4]; [6],0
same,"Hoechst 33342 nuclear staining score, HeLa",[4]; [7],0
same,"Hoechst 33342 nuclear staining score, Jurkat",[4]; [9],0
same,"Hoechst 33342 nuclear staining score, Jurkat",[4]; [5],0
same,"Hoechst 33342 nuclear staining score, Jurkat",[4]; [6],0
same,"Hoechst 33342 nuclear staining score, Jurkat",[4]; [7],0
CCN(CC)CCNCc1cc(-c2ccc3c(c2)OCO3)n(S(=O)(=O)c2ccc(C)cc2)c1 [Example 20],IC50,[1],> 1 µM
same,IC50,[2],> 1 µM
same,IC50,[3],> 1 µM
same,"Hoechst 33342 nuclear staining score, HeLa",[4]; [9],0
same,"Hoechst 33342 nuclear staining score, HeLa",[4]; [5],0
same,"Hoechst 33342 nuclear staining score, HeLa",[4]; [6],0
same,"Hoechst 33342 nuclear staining score, HeLa",[4]; [7],0
same,"Hoechst 33342 nuclear staining score, Jurkat",[4]; [9],0
same,"Hoechst 33342 nuclear staining score, Jurkat",[4]; [5],0
same,"Hoechst 33342 nuclear staining score, Jurkat",[4]; [6],0
same,"Hoechst 33342 nuclear staining score, Jurkat",[4]; [7],0
Cc1ccc(S(=O)(=O)n2cc(CN(C)C3CCN(C)CC3)cc2-c2ccc3c(c2)OCO3)cc1 [Example 26],IC50,[1],> 1 µM
same,IC50,[2],> 1 µM
same,IC50,[3],> 1 µM
same,"Hoechst 33342 nuclear staining score, HeLa",[4]; [9],0
same,"Hoechst 33342 nuclear staining score, HeLa",[4]; [5],0
same,"Hoechst 33342 nuclear staining score, HeLa",[4]; [6],0
same,"Hoechst 33342 nuclear staining score, HeLa",[4]; [7],0
same,"Hoechst 33342 nuclear staining score, Jurkat",[4]; [9],0
same,"Hoechst 33342 nuclear staining score, Jurkat",[4]; [5],0
same,"Hoechst 33342 nuclear staining score, Jurkat",[4]; [6],0
same,"Hoechst 33342 nuclear staining score, Jurkat",[4]; [7],0
